# Measurements reported in patent US5891842A, “Methodology for eliciting an analgesic response in a living subject” (priority 1996, dated 1999).
# Like-named read-outs stand apart in the source and are kept apart here.
# Legend:
# [1] = cited from earlier work
# [2] = oral, antitussive doses, cited from earlier work; for DOSE (figures in parentheses): not necessarily equieffective
# [3] = system: Adult male Sprague-Dawley rats; test: Tail-flick analgesic testing after intrathecal administration; type: in vivo, rat
# [4] = system: rats with spinal cord transection; test: Tail-flick analgesic testing after intrathecal administration, acutely transected spinal cord; type: in vivo, rat; details: 0.2 ug MS alone
# [5] = intrathecal administration of morphine; cited from earlier work
# [6] = 10 mg/70 kg body weight; cited from earlier work
# [7] = analgesic effects after subcutaneous administration
smiles,measurement,setting,value
"CCC(=O)OC1(c2ccccc2)CCN(C)CC1C (stereo not shown) [Alphaaprodine, Alphaprodine]",DURATION OF ACTION,[1]; [7],1 to 2 h
same,DOSE: amount given subcutaneously that produces approximately the same analgesic effects as 10 mg of morphine,"[1]; in vivo, sc",40
COc1ccc2c3c1O[C@H]1[C@@H](O)C=C[C@H]4[C@@H](C2)N(C)CC[C@@]341 [Codeine],DURATION OF ACTION (figures in parentheses),[2],4 to 6 h
same,DOSE (figures in parentheses),[2],10 to 20 mg
same,DOSE: amount given subcutaneously that produces approximately the same analgesic effects as 10 mg of morphine,"[1]; in vivo, sc",120
C[C@H](CN1CCOCC1)C(C(=O)N1CCCC1)(c1ccccc1)c1ccccc1 [Dextromoramide],DURATION OF ACTION,[1]; [7],4 to 5 h
same,DOSE: amount given subcutaneously that produces approximately the same analgesic effects as 10 mg of morphine,"[1]; in vivo, sc",5-7.5
CCC(=O)C(CC(C)N1CCCCC1)(c1ccccc1)c1ccccc1 (stereo not shown) [Dipipanone],DURATION OF ACTION,[1]; [7],4 to 5 h
same,DOSE: amount given subcutaneously that produces approximately the same analgesic effects as 10 mg of morphine,"[1]; in vivo, sc",20-25
"COc1ccc2c3c1O[C@H]1[C@@H](O)CC[C@H]4[C@@H](C2)N(C)CC[C@@]341 [Drocode, dihydrocodeine]",DURATION OF ACTION,[1]; [7],4 to 5 h
same,DOSE: amount given subcutaneously that produces approximately the same analgesic effects as 10 mg of morphine,"[1]; in vivo, sc",60
"CC(=O)Oc1ccc2c3c1O[C@H]1[C@@H](OC(C)=O)C=C[C@H]4[C@@H](C2)N(C)CC[C@@]341 [Heroin, diacetylmorphine]",DOSE (figures in parentheses),[2],2 to 8 mg
same,DURATION OF ACTION,[1]; [7],3 to 4 h
same,DOSE: amount given subcutaneously that produces approximately the same analgesic effects as 10 mg of morphine,"[1]; in vivo, sc",4
"COc1ccc2c3c1O[C@H]1C(=O)CC[C@H]4[C@@H](C2)N(C)CC[C@]314 [Hyrocodone, dihydrocodeinone]",DURATION OF ACTION (figures in parentheses),[2],4 to 8 h
same,DOSE (figures in parentheses),[2],5 to 10 mg
CN1CC[C@]23CCCC[C@H]2[C@H]1Cc1ccc(O)cc13 [Levorphanol],DURATION OF ACTION,[1]; [7],4 to 5 h
same,DOSE: amount given subcutaneously that produces approximately the same analgesic effects as 10 mg of morphine,"[1]; in vivo, sc",2
"CN1CC[C@]23c4c5ccc(O)c4O[C@H]2[C@@H](O)C=C[C@H]3[C@H]1C5.O=S(=O)(O)O [MS, morphine sulphate]",analgesic response,"[3]; 0.02 ug MS alone, intrathecal",weak response
same,"analgesic response, peak","[3]; 0.1 ug MS alone, intrathecal",approximately 30 % MPE
same,analgesic response,"[3]; 0.5 ug MS alone, intrathecal",maximal analgesic response between 5 and 30 min
same,declined to baseline,"[3]; 0.5 ug MS alone, intrathecal",60 min
same,analgesic response,[4],modest analgesic response
CCOC(=O)C1(c2ccccc2)CCN(C)CC1 [Meperidine],DURATION OF ACTION,[1]; [7],2 to 4 h
same,DOSE: amount given subcutaneously that produces approximately the same analgesic effects as 10 mg of morphine,"[1]; in vivo, sc",75-100
CCC(=O)C(CC(C)N(C)C)(c1ccccc1)c1ccccc1 (stereo not shown) [Methadone],DURATION OF ACTION,[1]; [7],3 to 5 h
same,DOSE: amount given subcutaneously that produces approximately the same analgesic effects as 10 mg of morphine,"[1]; in vivo, sc",8-10
CN1CC[C@]23c4c5ccc(O)c4O[C@H]2[C@@H](O)C=C[C@H]3[C@H]1C5 [Morphine],effect on hyperalgesia of administered substance P,[5],blocks the hyperalgesic effects
same,DOSE: amount given subcutaneously that produces approximately the same analgesic effects as 10 mg of morphine,"[1]; in vivo, sc",10
same,DURATION OF ACTION,"[1]; in vivo, sc",4-5
same,relieves post-operative pain satisfactorily (share of patients),[6],about two-thirds
"COc1ccc2c3c1O[C@H]1C(=O)CC[C@@]4(O)[C@@H](C2)N(C)CC[C@]314 [Oxycodone, dihydrohydroxycodeinone]",DURATION OF ACTION,[1]; [7],4 to 5 h
same,DOSE: amount given subcutaneously that produces approximately the same analgesic effects as 10 mg of morphine,"[1]; in vivo, sc",10-15
"CN1CC[C@]23c4c5ccc(O)c4O[C@H]2C(=O)CC[C@@]3(O)[C@H]1C5 [Oxymorphone, dihydrohydroxymorphinone]",DURATION OF ACTION,[1]; [7],4 to 5 h
same,DOSE: amount given subcutaneously that produces approximately the same analgesic effects as 10 mg of morphine,"[1]; in vivo, sc",1.0-1.5
CCC(=O)C(CC(C)N1CCOCC1)(c1ccccc1)c1ccccc1 (stereo not shown) [Phenadoxone],DURATION OF ACTION,[1]; [7],1 to 3 h
same,DOSE: amount given subcutaneously that produces approximately the same analgesic effects as 10 mg of morphine,"[1]; in vivo, sc",10-20
"CN1CC[C@]23c4c5ccc(OCCN6CCOCC6)c4O[C@H]2[C@@H](O)C=C[C@H]3[C@H]1C5 [Pholcodine, β-morpholinylethylmorphine]",DURATION OF ACTION (figures in parentheses),[2],4 to 5 h
same,DOSE (figures in parentheses),[2],5 to 15 mg
C=CCN1CC[C@]23c4c5ccc(O)c4O[C@H]2C(=O)CC[C@@]3(O)[C@H]1C5 [naloxone],analgesic response produced by MS in combination with SP after naloxone pretreatment,[3]; naloxone 1.0 ug intrathecal 10 min prior to 0.1 ug MS + 10 pmol SP,essentially eliminated
